Assay results from patent US20130156845A1, “LIPID FORMULATED SINGLE STRANDED RNA” (ALNYLAM PHARMACEUTICALS, INC., priority 2010, published 2013).
e = 2'-O-(2-methoxyethyl) (MOE); {P} = phosphate; f = 2'-fluoro

Columns and labels:
PTEN = PTEN mRNA reduction in HeLa cells, dose response (Example 59); assay type: cell-based, human; conditions: percent inhibition of PTEN mRNA, real-time PCR normalized to RIBOGREEN, 0.20-50 nM
Experimental: When cells reached 65-75% confluency, they are treated with one or more oligomeric compounds. The oligomeric compound is mixed with LIPOFECTIN™ Invitrogen Life Technologies, Carlsbad, Calif.) in Opti-MEM™-1 reduced serum medium (Invitrogen Life Technologies, Carlsbad, Calif.) to achieve the desired concentration of the oligomeric compound(s) and a LIPOFECTIN™ concentration of 2.5 or 3 μg/mL per 100 nM oligomeric compound(s). This transfection mixture is incubated at room temperature for approximately 0.5 hours. For cells grown in 96-well plates, wells are washed once with 100 μL OPTI-MEM™-1 and then treated with 130 μL of the transfection mixture. Cells grown in 24-well plates or other standard tissue culture plates are treated similarly, using appropriate volumes of medium and oligomeric compound(s). […]
Quantitation of target mRNA levels is accomplished by real-time quantitative PCR using the ABI PRISM™ 7600, 7700, or 7900 Sequence Detection System (PE-Applied Biosystems, Foster City, Calif.) according to manufacturer's instructions. This is a closed-tube, non-gel-based, fluorescence detection system which allows high-throughput quantitation of polymerase chain reaction (PCR) products in real-time. As opposed to standard PCR in which amplification products are quantitated after the PCR is completed, products in real-time quantitative PCR are quantitated as they accumulate. […]

[1] = Phosphate stability in mouse serum (Example 68)
Experimental: Single-stranded oligomeric compounds were tested for stability in mouse serum.

## P-UfUfGfUfCfUfCfUfGfGfUfCfCfUfUfAfCfUfUfAeAe (antisense UUGUCUCUGGUCCUUACUUAA; sugars from the 5' end f19 e2, 5' {P}, backbone not given here) [ISIS 404320]
PTEN
  EC50: 0.0132 µM
[1]; four compounds tested separately, second table
  T1/2 full length: 24 min
[1]; full compound with intact phosphorous moiety, first table
  T1/2 full length: 24 min
